Measurements reported in US20210221812A1, “MATRINE a-KETOAMINE COMPOUNDS, PREPARATION METHOD THEREFOR AND USE THEREOF” (SHANGHAI XINGYE PHARMACEUTICAL TECHNOLOGY CO., LTD, priority 2018, published 2021).

Tests used:
A549 cells [1] = assay: Anti-tumor activity of NK cells activated by compounds, A549 (CFSE/PI flow cytometry); type: cell-based; details: Homo sapiens, tumor cells treated with 20 μM compound 48 h, then mixed with NK cells 5:1 for 4 hours, CFSE+PI+ tumor cells, read-out: A549 inhibition rate (%)
Experimental: (§1) Logarithmic growth phase of Lovo, HpeG-2, A549, k562, Panc-1 cells were collected and seeded in a 6-well plate at a density of 5×10^5/mL and 2 mL/well separately. The experimental group was treated with 20 μM final drug concentration of GJDx compounds, and the control group was treated with an equal volume of RPMI1640 medium. The groups were cultured at 37° C., saturated humidity, 5% CO2 for 48 h. After that, the cells of each group were collected, centrifuged and the supernatant was removed and resuspended in PBS at a density of 1×10^6/mL. Then 2 μL of CFSE stock solution (final concentration was 10 μM) was added into the cell suspension per 1 mL and cultured at 37° C. with 5% CO2 for 30 min, and then added 5-10 times of the volume of 4° C. pre-chilled RPM 1640 complete medium, and incubated on ice for 5 minutes, discarded the supernatant by centrifugation at 4° C., and wash the cells with fresh medium for 3 times. After that, mixing the labeled tumor cells and NK cells (the NK cell culture medium was α-MEM contained 1.5 g/L sodium bicarbonate, 12.5% fetal bovine serum, and 12.5% horse serum) according to the ratio of 5:1, the mixture cells was collected and washed with flow buffer twice after incubated for 4 hours, then 50 μg/mL PI was added, and incubated at room temperature for 15 minutes in the dark, and finally testing the percentage of CFSE^+PI^+ tumor cells on the flow cytometer.

k562 cells [2] = assay: Anti-tumor activity of NK cells activated by compounds, k562 (CFSE/PI flow cytometry); type: cell-based; details: Homo sapiens, tumor cells treated with 20 μM compound 48 h, then mixed with NK cells 5:1 for 4 hours, CFSE+PI+ tumor cells, read-out: k562 inhibition rate (%)
Experimental: as §1

Lovo cells [3] = assay: Anti-tumor activity of NK cells activated by compounds, Lovo (CFSE/PI flow cytometry); type: cell-based; details: Homo sapiens, tumor cells treated with 20 μM compound 48 h, then mixed with NK cells 5:1 for 4 hours, CFSE+PI+ tumor cells, read-out: Lovo inhibition rate (%)
Experimental: as §1

HpeG-2 cells [4] = assay: Anti-tumor activity of NK cells activated by compounds, HpeG-2 (CFSE/PI flow cytometry); type: cell-based; details: tumor cells treated with 20 μM compound 48 h, then mixed with NK cells 5:1 for 4 hours; CFSE+PI+ tumor cells; read-out: HpeG-2 inhibition rate (%)
Experimental: as §1

Panc-1 cells [5] = assay: Anti-tumor activity of NK cells activated by compounds, Panc-1 (CFSE/PI flow cytometry); type: cell-based; details: Homo sapiens, tumor cells treated with 20 μM compound 48 h, then mixed with NK cells 5:1 for 4 hours, CFSE+PI+ tumor cells, read-out: Panc-1 inhibition rate (%)
Experimental: as §1

Lovo cells [6] = assay: MTT tumor cell growth inhibition, Lovo; type: cell-based; details: Homo sapiens, 48 h, read-out: Tumors growth-inhibitory activity (IC50) Lovo
Experimental: (§2) Using MTT method to determine the growth inhibition activity of the matrine compounds on Lovo, MGC-803, Mia-paca2, HpeG-2, A549, k562, and Panc-1 cells in vitro. Logarithmic growth phase of Lovo, MGC-803, Mia-paca2, HpeG-2, A549, k562, Panc-1 cells were inoculated into 96-well plates (purchased from Institute of Biochemical Cells, Chinese Academy of Sciences, and cultured according to conventional tumor cell culture methods) at a density of 4×10^4/mL and 180 μL/well; after the cells adhered to the wall, 20 μL of drug solution was added to each well and matined the final drug concentrations were 0.1 μM, 1 μM, 10 μM, 50 μM, 100 μM respectively. After 48 h, 5 mg/mL MTT solution was added (20 μL/well) and maintained in a CO2 incubator for 3-4 h. After that, discarding the supernatant carefully, and DMSO was added (200 μL/well) when the residual liquid was air-dried, and shook for 0.5-1 h until the residual crystals was dissolved. The absorbance OD was measured at 492 nm by a microplate reader. GraphPad Prism 5 software was used to calculate the IC50 value.

Panc-1 cells [7] = assay: MTT tumor cell growth inhibition, Panc-1; type: cell-based; details: Homo sapiens, 48 h, read-out: Tumors growth-inhibitory activity (IC50) Panc-1
Experimental: as §2

MGC-803 cells = assay: MTT tumor cell growth inhibition, MGC-803; type: cell-based; details: Homo sapiens, 48 h, read-out: Tumors growth-inhibitory activity (IC50) MGC-803
Experimental: as §2

HpeG-2 cells [8] = assay: MTT tumor cell growth inhibition, HpeG-2; type: cell-based; details: 48 h, read-out: Tumors growth-inhibitory activity (IC50) HpeG-2
Experimental: as §2

TNF-α = TNF-α activity inhibiting assay (LPS-stimulated peripheral blood, ELISA); type: cell-based, human; details: Homo sapiens, compound 20 μM, LPS 10 ng/mL, 6 hours, diluted peripheral blood of healthy volunteers, read-out: TNF-α inhibition rate (%)
Experimental: Methods: Peripheral blood from healthy volunteers was collected with EDTA anticoagulant tubes. After being diluted 5-fold with 1640 medium (Gibco, USA), the blood was added to 96-well cell culture plates (Costar, USA) and then treated with 10 μL solution of the compound of general formula (I) of the present invention in DMSO (Sigma, USA), the final concentration of the compound was 20 μM with the final concentration of DMSO was 0.2%. After incubation for 60 minutes in an incubator at 37° C. under 5% CO2, 10 μL LPS (Sigma, USA) was added to the reaction system, and the final concentration was 10 ng/mL. After further culturing for 6 hours in the incubator at 37° C. under 5% CO2, the supernatant was collected. The content of TNF-α was determined by ELISA (BD Biosciences, USA). Absorbance was detected at OD450 nm with a microplate reader, with OD 650 nm as reference. The control, a solution containing 0.2% DMSO medium, was as 0% inhibition. Raw data and standard curves were recorded. The four-parameter drug inhibition curve was plotted by XL-fit software and the inhibition rate of each compound was calculated.

k562 cells [9] = assay: MTT tumor cell growth inhibition, k562; type: cell-based; details: Homo sapiens, 48 h, read-out: Tumors growth-inhibitory activity (IC50) k562
Experimental: as §2

Mia-paca2 cells = assay: MTT tumor cell growth inhibition, Mia-paca2; type: cell-based; details: Homo sapiens, MIA PaCa-2, 48 h, read-out: Tumors growth-inhibitory activity (IC50) Mia-paca2
Experimental: as §2

A549 cells [10] = assay: MTT tumor cell growth inhibition, A549; type: cell-based; details: Homo sapiens, 48 h, read-out: Tumors growth-inhibitory activity (IC50) A549
Experimental: as §2

Row | IC50 (Lovo cells [6]) | IC50 (Panc-1 cells [7]) | IC50 (MGC-803 cells) | IC50 (HpeG-2 cells [8]) | IC50 (k562 cells [9]) | IC50 (Mia-paca2 cells) | IC50 (A549 cells [10]) | SMILES | inhibition at 20 µM (A549 cells [1]) | inhibition at 20 µM (k562 cells [2]) | inhibition at 20 µM (Lovo cells [3]) | inhibition at 20 µM (HpeG-2 cells [4]) | inhibition at 20 µM (Panc-1 cells [5]) | inhibition at 20 µM (TNF-α)
1 | – | – | – | – | – | – | – | O=C1c2cccnc2C(=O)N1C1CC[C@@H]2[C@H]3CCCN4CCC[C@@H](CN2C1=O)[C@@H]34 (some centres unmarked) [GJD 15] | > 50% | < 50% | > 50% | > 50% | > 50% | –
2 | < 50 µM | 50 to 100 µM | 50 to 100 µM | 50 to 100 µM | 50 to 100 µM | 50 to 100 µM | > 100 µM | O=C1c2cccc(C(F)(F)F)c2C(=O)N1C1CC[C@@H]2[C@H]3CCCN4CCC[C@@H](CN2C1=O)[C@@H]34 (some centres unmarked) [GJD 07] | < 50% | > 50% | > 50% | > 50% | > 50% | > 50%
3 | – | – | – | – | – | – | – | O=C1c2cccc([N+](=O)[O-])c2CN1C1CC[C@@H]2[C@H]3CCCN4CCC[C@@H](CN2C1=O)[C@@H]34 (some centres unmarked) [GJD 31] | > 50% | > 50% | > 50% | > 50% | ≥ 50% | –
4 | 50 to 100 µM | > 100 µM | > 100 µM | 50 to 100 µM | 50 to 100 µM | > 100 µM | 50 to 100 µM | O=C1c2ccccc2C(=O)N1C1CC[C@@H]2[C@H]3CCCN4CCC[C@@H](CN2C1=O)[C@@H]34 (some centres unmarked) [GJD 01] | > 50% | < 50% | ≥ 50% | > 50% | < 50% | ≥ 50%
5 | – | – | – | – | – | – | – | Nc1cccc2c1C(=O)N(C1CC[C@@H]3[C@H]4CCC[N+]5([O-])CCC[C@@H](CN3C1=O)[C@@H]45)C2=O (some centres unmarked) [GJD 63] | > 50% | > 50% | > 50% | > 50% | > 50% | –
6 | – | – | – | – | – | – | – | O=C1c2ccccc2CN1C1CC[C@@H]2[C@H]3CCCN4CCC[C@H](CN2C1=O)[C@@H]34 (some centres unmarked) [GJD 42] | > 50% | < 50% | > 50% | > 50% | < 50% | –
7 | 50 to 100 µM | 50 to 100 µM | > 100 µM | < 50 µM | 50 to 100 µM | 50 to 100 µM | < 50 µM | O=C(NC1CC[C@@H]2[C@H]3CCCN4CCC[C@@H](CN2C1=O)[C@@H]34)c1cc(Cl)ccc1O (some centres unmarked) [GJD 55] | < 50% | < 50% | < 50% | < 50% | > 50% | –
8 | < 50 µM | < 50 µM | 50 to 100 µM | < 50 µM | < 50 µM | 50 to 100 µM | 50 to 100 µM | Nc1cccc2c1C(=O)N(C1CC[C@@H]3[C@H]4CCCN5CCC[C@@H](CN3C1=O)[C@@H]45)C2=O (some centres unmarked) [GJD 02] | > 50% | > 50% | > 50% | > 50% | > 50% | > 50%
9 | 50 to 100 µM | 50 to 100 µM | 50 to 100 µM | < 50 µM | 50 to 100 µM | 50 to 100 µM | < 50 µM | O=C(NC1CC[C@@H]2[C@H]3CCCN4CCC[C@@H](CN2C1=O)[C@@H]34)c1ccc(OC(F)F)c(OCC2CC2)c1 (some centres unmarked) [GJD 52] | – | – | – | – | – | > 50%
10 | – | – | – | – | – | – | – | O=C1[C@H](N2C(=O)c3ccccc3C2=O)CC[C@@H]2[C@H]3CCCN4CCC[C@@H](CN12)[C@@H]34 [GJD 26] | > 50% | > 50% | > 50% | > 50% | > 50% | –
11 | – | – | – | – | – | – | – | CC(=O)Oc1ccccc1C(=O)NC1CC[C@@H]2[C@H]3CCCN4CCC[C@@H](CN2C1=O)[C@@H]34 (some centres unmarked) [GJD 51] | < 50% | < 50% | < 50% | > 50% | < 50% | –
